Biological target: T1, BRD9 (Homo sapiens, UniProt Q9H8M2)
T1 sequence (Q9H8M2 1-597): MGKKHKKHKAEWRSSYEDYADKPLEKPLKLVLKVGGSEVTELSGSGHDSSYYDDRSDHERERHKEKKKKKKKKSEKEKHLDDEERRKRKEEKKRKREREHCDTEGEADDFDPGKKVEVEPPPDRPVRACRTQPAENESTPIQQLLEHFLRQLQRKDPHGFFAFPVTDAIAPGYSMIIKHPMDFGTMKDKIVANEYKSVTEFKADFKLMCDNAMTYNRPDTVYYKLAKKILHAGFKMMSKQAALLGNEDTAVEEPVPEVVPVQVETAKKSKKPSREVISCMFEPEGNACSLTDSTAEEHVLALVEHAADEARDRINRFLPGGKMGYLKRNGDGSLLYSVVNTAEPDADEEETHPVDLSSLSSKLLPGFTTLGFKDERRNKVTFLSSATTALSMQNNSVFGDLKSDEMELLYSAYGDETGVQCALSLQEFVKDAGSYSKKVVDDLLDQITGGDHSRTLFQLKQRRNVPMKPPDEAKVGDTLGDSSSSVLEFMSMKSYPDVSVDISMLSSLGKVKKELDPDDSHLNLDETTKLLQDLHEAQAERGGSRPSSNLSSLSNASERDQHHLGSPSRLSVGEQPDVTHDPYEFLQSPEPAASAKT
Assay: Degradation of BRD9 (IF), immunofluorescence in MV4-11 cells, 24 hours (Assay Protocol 2)
Format: cell-based
Parameters: A suspension of MV4-11 cells (ATCC CRL-9591) was prepared; host or cells: MV4-11
Conditions: BRD9 degradation; for DC50: Assay protocol 2, read-out: DC50; for Dmax: MV4-11, Assay protocol 2, read-out: Dmax
In short: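 MV4-11 cells treated with compound 24 h at 37° C., then fixed, permeabilised and immunostained for BRD9 (anti-BRD9 E4Q3F, Alexa 647 secondary, Hoechst counterstain). High-content imaging quantified nuclear BRD9 signal; % BRD9 remaining normalised to DMSO and 100 nM CFT-8634 controls.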

Row | SMILES | DC50 [nM] | Dmax [%]
1 | COc1cc(-c2cn(C)c(=O)c(C)c2C)cc(OC)c1CN1C[C@H](C)N(Cc2cccc3c2CCN(C(=O)/C(C#N)=C/c2cccc(Br)n2)C3C)[C@@H](C)C1 (mixture of isomers) [Compound B110, (E/Z)-3-(6-bromopyridin-2-yl)-2-(5-(((2S,6S)-4-(2,6-dimethoxy-4-(1,4,5-trimethyl-6-oxo-1,6-dihydropyridin-3-yl)benzyl)-2,6-dimethylpiperazin-1-yl)methyl)-1-methyl-1,2,3,4-tetrahydroisoquinoline-2-carbonyl)acrylonitrile] | 25 to 1000 | 40 to 70
2 | COc1cc(-c2cn(C)c(=O)c(C)c2C)cc(OC)c1CN1CCN(Cc2cccc3c2CCN(C(=O)/C(C#N)=C/C(C)(C)C)C3C)C(=O)C1(C)C (mixture of isomers) [Compound B112, (E/Z)-2-(5-((4-(2,6-dimethoxy-4-(1,4,5-trimethyl-6-oxo-1,6-dihydropyridin-3-yl)benzyl)-3,3-dimethyl-2-oxopiperazin-1-yl)methyl)-1-methyl-1,2,3,4-tetrahydroisoquinoline-2-carbonyl)-4,4-dimethylpent-2-enenitrile] | 10 to 25 | > 75
3 | COc1cc(-c2cn(C)c(=O)c(C)c2C)cc(OC)c1CN1CCN(Cc2cccc3c2CCN(C(=O)/C(C#N)=C/C(C)(C)C)C3C)[C@H](C)C1 (mixture of isomers) [Compound B119, (E/Z)-2-(5-(((R)-4-(2,6-dimethoxy-4-(1,4,5-trimethyl-6-oxo-1,6-dihydropyridin-3-yl)benzyl)-2-methylpiperazin-1-yl)methyl)-1-methyl-1,2,3,4-tetrahydroisoquinoline-2-carbonyl)-4,4-dimethylpent-2-enenitrile] | 10 to 25 | 40 to 70
4 | COc1cc(-c2cn(C)c(=O)c(C)c2C)cc(OC)c1CN1C[C@H](C)N(Cc2cccc3c2CCN(C(=O)/C(C#N)=C/C(C)(C)C)C3C)C[C@@H]1C (mixture of isomers) [Compound B121, (E/Z)-2-(5-(((2S,5S)-4-(2,6-dimethoxy-4-(1,4,5-trimethyl-6-oxo-1,6-dihydropyridin-3-yl)benzyl)-2,5-dimethylpiperazin-1-yl)methyl)-1-methyl-1,2,3,4-tetrahydroisoquinoline-2-carbonyl)-4,4-dimethylpent-2-enenitrile] | 25 to 1000 | 40 to 70
5 | COc1cc(-c2cn(C)c(=O)c(C)c2C)cc(OC)c1CN1CCN(Cc2cccc3c2CCN(C(=O)/C(C#N)=C/C(C)(C)C)C3C)C2(CCC2)C1 (mixture of isomers) [Compound B130, (E/Z)-2-(5-((8-(2,6-dimethoxy-4-(1,4,5-trimethyl-6-oxo-1,6-dihydropyridin-3-yl)benzyl)-5,8-diazaspiro[3.5]nonan-5-yl)methyl)-1-methyl-1,2,3,4-tetrahydroisoquinoline-2-carbonyl)-4,4-dimethylpent-2-enenitrile] | 10 to 25 | > 75
6 | COc1cc(-c2cn(C)c(=O)c(C)c2C)cc(OC)c1CN1CC[C@H](Oc2cccc3c2CCN(C(=O)/C(C#N)=C/C(C)(C)C)C3C)C1 (mixture of isomers) [Compound B133, (E/Z)-2-(5-(((R)-1-(2,6-dimethoxy-4-(1,4,5-trimethyl-6-oxo-1,6-dihydropyridin-3-yl)benzyl)pyrrolidin-3-yl)oxy)-1-methyl-1,2,3,4-tetrahydroisoquinoline-2-carbonyl)-4,4-dimethylpent-2-enenitrile] | 10 to 25 | 40 to 70

The remaining lines, values ahead:

Row | DC50 [nM] | Dmax [%] | SMILES
7 | 10 to 25 | > 75 | COc1cc(-c2cn(C)c(=O)c(C)c2C)cc(OC)c1CN1C[C@@H](C)N(Cc2cccc3c2CCN(C(=O)/C(C#N)=C/C(C)(C)C)C3C)C[C@@H]1C (mixture of isomers) [Compound B111, (E/Z)-2-(5-(((2R,5S)-4-(2,6-dimethoxy-4-(1,4,5-trimethyl-6-oxo-1,6-dihydropyridin-3-yl)benzyl)-2,5-dimethylpiperazin-1-yl)methyl)-1-methyl-1,2,3,4-tetrahydroisoquinoline-2-carbonyl)-4,4-dimethylpent-2-enenitrile]
8 | 1.25 to 10 | > 75 | CC[C@H]1CN(Cc2c(OC)cc(-c3cn(C)c(=O)c(C)c3C)cc2OC)CCN1Cc1cccc2c1CCN(C(=O)/C(C#N)=C/C(C)(C)C)C2C (mixture of isomers) [Compound B113, (E/Z)-2-(5-(((S)-4-(2,6-dimethoxy-4-(1,4,5-trimethyl-6-oxo-1,6-dihydropyridin-3-yl)benzyl)-2-ethylpiperazin-1-yl)methyl)-1-methyl-1,2,3,4-tetrahydroisoquinoline-2-carbonyl)-4,4-dimethylpent-2-enenitrile]
9 | 1.25 to 10 | > 75 | COc1cc(-c2cn(C)c(=O)c(C)c2C)cc(OC)c1CN1[C@H](C)CN(Cc2cccc3c2CCN(C(=O)/C(C#N)=C/C(C)(C)C)C3C)C[C@@H]1C (mixture of isomers) [Compound B114, (E/Z)-2-(5-(((3S,5R)-4-(2,6-dimethoxy-4-(1,4,5-trimethyl-6-oxo-1,6-dihydropyridin-3-yl)benzyl)-3,5-dimethylpiperazin-1-yl)methyl)-1-methyl-1,2,3,4-tetrahydroisoquinoline-2-carbonyl)-4,4-dimethylpent-2-enenitrile]
10 | 1.25 to 10 | > 75 | COc1cc(-c2cn(C)c(=O)c(C)c2C)cc(OC)c1CN1C[C@@H](C)N(Cc2cccc3c2CCN(C(=O)/C(C#N)=C/C(C)(C)C)C3C)C[C@H]1C (mixture of isomers) [Compound B115, (E/Z)-2-(5-(((2R,5R)-4-(2,6-dimethoxy-4-(1,4,5-trimethyl-6-oxo-1,6-dihydropyridin-3-yl)benzyl)-2,5-dimethylpiperazin-1-yl)methyl)-1-methyl-1,2,3,4-tetrahydroisoquinoline-2-carbonyl)-4,4-dimethylpent-2-enenitrile]
11 | 1.25 to 10 | > 75 | CCC(C)(C)/C=C(\C#N)C(=O)N1CCc2c(CN3CCN(Cc4c(OC)cc(-c5cn(C)c(=O)c(C)c5C)cc4OC)CC34CC4)cccc2C1C (mixture of isomers) [Compound B117, (E/Z)-2-(5-((7-(2,6-dimethoxy-4-(1,4,5-trimethyl-6-oxo-1,6-dihydropyridin-3-yl)benzyl)-4,7-diazaspiro[2.5]octan-4-yl)methyl)-1-methyl-1,2,3,4-tetrahydroisoquinoline-2-carbonyl)-4,4-dimethylhex-2-enenitrile]
12 | < 1.25 | 70 to 75 | COc1cc(-c2cn(C)c(=O)c3[nH]ncc23)cc(OC)c1CN1CCN(Cc2cccc3c2CCN(C(=O)/C(C#N)=C/c2cccc(Br)n2)C3C)C2(CC2)C1 (mixture of isomers) [Compound B118, (E/Z)-3-(6-bromopyridin-2-yl)-2-(5-((7-(2,6-dimethoxy-4-(6-methyl-7-oxo-6,7-dihydro-1H-pyrazolo[3,4-c]pyridin-4-yl)benzyl)-4,7-diazaspiro[2.5]octan-4-yl)methyl)-1-methyl-1,2,3,4-tetrahydroisoquinoline-2-carbonyl)acrylonitrile]
13 | 1.25 to 10 | 70 to 75 | CC[C@@H]1CN(Cc2cccc3c2CCN(C(=O)/C(C#N)=C/C(C)(C)C)C3C)CCN1Cc1c(OC)cc(-c2cn(C)c(=O)c(C)c2C)cc1OC (mixture of isomers) [Compound B120, (E/Z)-2-(5-(((R)-4-(2,6-dimethoxy-4-(1,4,5-trimethyl-6-oxo-1,6-dihydropyridin-3-yl)benzyl)-3-ethylpiperazin-1-yl)methyl)-1-methyl-1,2,3,4-tetrahydroisoquinoline-2-carbonyl)-4,4-dimethylpent-2-enenitrile]
14 | 1.25 to 10 | > 75 | COc1cc(-c2cn(C)c(=O)c(C)c2C)cc(OC)c1CN1CCN(Cc2cccc3c2CCN(C(=O)/C(C#N)=C/c2cccc(Br)n2)C3C)C(C(C)C)C1 (mixture of isomers) [Compound B131, (E/Z)-3-(6-bromopyridin-2-yl)-2-(5-((4-(2,6-dimethoxy-4-(1,4,5-trimethyl-6-oxo-1,6-dihydropyridin-3-yl)benzyl)-2-isopropylpiperazin-1-yl)methyl)-1-methyl-1,2,3,4-tetrahydroisoquinoline-2-carbonyl)acrylonitrile]
15 | 1.25 to 10 | > 75 | CC[C@H]1CN(Cc2cccc3c2CCN(C(=O)/C(C#N)=C/C(C)(C)C)C3C)CCN1Cc1c(OC)cc(-c2cn(C)c(=O)c(C)c2C)cc1OC (mixture of isomers) [Compound B135, (E/Z)-2-(5-(((S)-4-(2,6-dimethoxy-4-(1,4,5-trimethyl-6-oxo-1,6-dihydropyridin-3-yl)benzyl)-3-ethylpiperazin-1-yl)methyl)-1-methyl-1,2,3,4-tetrahydroisoquinoline-2-carbonyl)-4,4-dimethylpent-2-enenitrile]

From US20260092061A1, “COMPOUNDS FOR TARGETED PROTEIN DEGRADATION” (Amphista Therapeutics Limited, priority 2022, published 2026)
